Our source for the IC50 and melting point values is patent publication US7678810B2, “Thiazole derivative” (Taisho Pharmaceutical Co., Ltd, priority 2004, dated 2010).

The first series concerns Smad2/3 phosphorylation caused by TGF-β1 stimulation. As to the kind of experiment: Smad2/3 phosphorylation inhibitory activity test. It counts as cell-based. Particulars: Homo sapiens; A549 cells; compound 2 hours before TGF-β1 1 ng/ml, 1 hour; anti-Smad2/3 immunoprecipitation, Western blotting. As for the experimental part: A549 cells were seeded to a plate, and cultured overnight in a Ham's F-12 medium supplemented with 10% FBS. This medium was replaced with the same medium containing the compounds or not containing the compounds, and after incubated another 2 hours, TGF-01 was added thereto so as to make its final concentration 1 ng/ml, and further incubated another 1 hour. After completion of incubation, the medium was removed, and the cells were washed with PBS and then lysed by a RIPA solution. The cell lysate solution was subjected to immunoprecipitation using anti-Smad2/3 antibody, and then Western blotting was performed. Using a rabbit anti-phosphorylated serine antibody as a primary antibody, a HRP-labeled anti-rabbit IgG antibody as a secondary antibody, and ECL Western blotting detection reagents as detection reagents, light emitting amounts were measured using Limi-Imager F1 (Roche Diagnostics) etc.
Following the above described methods, the inhibitory activities of the respective compounds against Smad2/3 phosphorylation caused by TGF-β1 stimulation were measured, and IC50 values were calculated.
(In general: A western blot detects proteins with antibodies after separation by electrophoresis.)
`Cc1csc(-c2nc(-c3ccc(C(N)=O)cc3)[nH]c2-c2ccc3ncsc3c2)n1` [Compound 50] displayed an IC50 of 80 nM. Same read-out and setting: with `Cc1csc(-c2nc(C)[nH]c2-c2ccc3ncsc3c2)n1` [Compound 52] the figure was 24 nM; with `CCCCc1nc(-c2nc(C)cs2)c(-c2ccc3ncsc3c2)[nH]1` [Compound 57], 45 nM.

`Cc1csc(-c2nc(N)[nH]c2-c2ccc3ncsc3c2)n1` [Compound 68] showed an IC50 of 31 nM. Same read-out and setting: to `Cc1csc(-c2nc(C3CCC(=O)CC3)[nH]c2-c2ccc3ncsc3c2)n1` [Compound 80] belongs 89 nM; to `CCCC(O)CCc1nc(-c2nc(C)cs2)c(-c2ccc3ncsc3c2)[nH]1` (stereo not shown) [Compound 81], 52 nM; to `Cc1csc(-c2nc(C3CCOCC3)[nH]c2-c2ccc3ncsc3c2)n1` [Compound 83], 99 nM. Still for that read-out and setting: with `COCCCCc1nc(-c2nc(C)cs2)c(-c2ccc3ncsc3c2)[nH]1` [Compound 87] the figure was 38 nM. Same read-out and setting: to `CCCC(=O)NCc1nc(-c2nc(C)cs2)c(-c2ccc3ncsc3c2)[nH]1` [Compound 105] belongs 32 nM; to `COCC(=O)NCc1nc(-c2nc(C)cs2)c(-c2ccc3ncsc3c2)[nH]1` [Compound 124], 67 nM; to `Cc1csc(-c2nc(CNC(=O)C3CCOCC3)[nH]c2-c2ccc3ncsc3c2)n1` [Compound 129], 107 nM. As to `CCCNC(=O)CCCCc1nc(-c2nc(C)cs2)c(-c2ccc3ncsc3c2)[nH]1` [Compound 171], inhibition was half-maximal at 89 nM (IC50). On the same count and under the same terms, with `CCNC(=O)NCc1nc(-c2nc(C)cs2)c(-c2ccc3ncsc3c2)[nH]1` [Compound 175] the figure was 126 nM; with `Cc1csc(-c2nc(CNC(=O)N(C)C)[nH]c2-c2ccc3ncsc3c2)n1` [Compound 176], 77 nM.

`COC(=O)NCc1nc(-c2nc(C)cs2)c(-c2ccc3ncsc3c2)[nH]1` [Compound 186]: the IC50 was 38 nM.

In turn, `C#CCOC(=O)NCc1nc(-c2nc(C)cs2)c(-c2ccc3ncsc3c2)[nH]1` [Compound 191] gave an IC50 of 31 nM. Still for that read-out and setting: with `Cc1csc(-c2nc(CN3CCOC3=O)[nH]c2-c2ccc3ncsc3c2)n1` [Compound 197] the figure was 92 nM. Still for that read-out and setting: with `CCNC(=O)OCc1nc(-c2nc(C)cs2)c(-c2ccc3ncsc3c2)[nH]1` [Compound 198] the figure was 93 nM; with `Cc1csc(-c2nc(COC(=O)N(C)C)[nH]c2-c2ccc3ncsc3c2)n1` [Compound 199], 70 nM. Still for that read-out and setting: with `CCCC(=O)CCc1nc(-c2nc(C)cs2)c(-c2ccc3ncsc3c2)[nH]1` [Compound 201] the figure was 42 nM.

Tested on in the next series: not given
Experiment: not given
Settings: not given
Molecule `COCC(=O)NCc1nc(-c2nc(C)cs2)c(-c2ccc3ncsc3c2)[nH]1` [Compound 124] yielded a melting point of 223.5 to 224 °C.

`Cc1csc(-c2nc(CNC(=O)C3CCOCC3)[nH]c2-c2ccc3ncsc3c2)n1` [Compound 129] displayed a melting point of 197 to 197.5 °C.

The molecule `CCCNC(=O)NCc1nc(-c2nc(C)cs2)c(-c2ccc3ncsc3c2)[nH]1` [Compound 177] had a melting point of 179.5 to 182 °C. With `Cc1csc(-c2nc(CNC(=O)NC(C)C)[nH]c2-c2ccc3ncsc3c2)n1` [Compound 178], the melting point lay in the range of 178.5 to 180 °C. Same read-out and setting: with `CCCCNC(=O)NCc1nc(-c2nc(C)cs2)c(-c2ccc3ncsc3c2)[nH]1` [Compound 179] the figure was 190.5 to 191.5 °C; with `CCN(CC)C(=O)NCc1nc(-c2nc(C)cs2)c(-c2ccc3ncsc3c2)[nH]1` [Compound 181], 222.5 to 223 °C. On to `CCCCCNC(=O)NCc1nc(-c2nc(C)cs2)c(-c2ccc3ncsc3c2)[nH]1` [Compound 182], for which the melting point lay in the range of 199 to 201 °C. The same measure, in the same setting: to `Cc1csc(-c2nc(CNC(=O)NC3CCCC3)[nH]c2-c2ccc3ncsc3c2)n1` [Compound 183] belongs 185.5 to 188 °C; to `Cc1csc(-c2nc(CNC(=O)N3CCOCC3)[nH]c2-c2ccc3ncsc3c2)n1` [Compound 185], 205.5 to 206 °C. The molecule `CCOC(=O)NCc1nc(-c2nc(C)cs2)c(-c2ccc3ncsc3c2)[nH]1` [Compound 187] had a melting point of 183 to 184 °C. On the same count and under the same terms, with `Cc1csc(-c2nc(CNC(=O)OCCCl)[nH]c2-c2ccc3ncsc3c2)n1` [Compound 188] the figure was 202 to 204 °C (dec.); with `CCCCOC(=O)NCc1nc(-c2nc(C)cs2)c(-c2ccc3ncsc3c2)[nH]1` [Compound 193], 161 to 162 °C. Still for that read-out and setting: with `Cc1csc(-c2nc(CNC(=O)OCC(C)C)[nH]c2-c2ccc3ncsc3c2)n1` [Compound 194] the figure was 142.5 to 144 °C. For the molecule `CCCCCOC(=O)NCc1nc(-c2nc(C)cs2)c(-c2ccc3ncsc3c2)[nH]1` [Compound 195], the melting point is 177.5 to 178.5 °C.

`Cc1csc(-c2nc(CNC(=O)OCC(C)(C)C)[nH]c2-c2ccc3ncsc3c2)n1` [Compound 196] gave a melting point of 170.5 to 171.5 °C. Still for that read-out and setting: with `Cc1csc(-c2nc(COC(=O)N(C)C)[nH]c2-c2ccc3ncsc3c2)n1` [Compound 199] the figure was 181.5 to 182 °C. Same read-out and setting: with `N#Cc1ccc(-c2nc(-c3nccs3)c(-c3ccccn3)n2O)cc1` [Compound 202] the figure was 248 to 251 °C (dec.). Still for that read-out and setting: to `Cc1csc(C(=O)C(=O)c2ccc3c(c2)OCO3)n1` [Compound 203] belongs 131.5 to 132.5 °C. Molecule `Cc1csc(C(=O)C(=O)c2ccc(F)cc2)n1` [Compound 206] yielded a melting point of 75 to 77 °C.

The molecule `Cc1csc(C#Cc2ccc3c(c2)OCO3)n1` [Compound 217] yielded a melting point of 111.5 to 112 °C. For `Cc1csc(C#Cc2ccc(F)cc2)n1` [Compound 219], the melting point was in the range of 82 to 83 °C. In the case of `Cc1csc(-c2nc(C3CCC(=O)N3)[nH]c2-c2ccc3ncsc3c2)n1` (stereo not shown) [Compound 229], the melting point is 273 to 275 °C (dec.). On the same count and under the same terms, to `Cc1csc(-c2nc(C3CCC(=O)N3)[nH]c2-c2ccc3ncsc3c2)n1` (stereo not shown) [Compound 230] belongs 263 to 268 °C (dec.); to `COc1ccc(Cn2c(C)nc(-c3nc(C)cs3)c2-c2ccc3ncsc3c2)cc1` [Compound 231], 144 to 145 °C.

With `Cc1csc(-c2nc(C)n(Cc3ccc(O)cc3)c2-c2ccc3ncsc3c2)n1` [Compound 232], the melting point fell in the range of 215.5 to 218.5 °C. On the same count and under the same terms, to `Cc1csc(-c2nc(C)n(Cc3ccc(OCCN(C)C)cc3)c2-c2ccc3ncsc3c2)n1` [Compound 233] belongs 146.5 to 148 °C; to `COCCOc1ccc(Cn2c(C)nc(-c3nc(C)cs3)c2-c2ccc3ncsc3c2)cc1` [Compound 234], 129.5 to 131 °C; to `CNC(=O)OCc1nc(-c2nc(C)cs2)c(-c2ccc3ncsc3c2)[nH]1` [Compound 235], 158 to 159.5 °C.

On to `CNC(=O)NCc1nc(-c2nc(C)cs2)c(-c2ccc3ncsc3c2)[nH]1` [Compound 238], for which the melting point was in the range of 239 to 239.5 °C. On the same count and under the same terms, to `Cc1csc(-c2nc(CNC(=O)C3CCCCO3)[nH]c2-c2ccc3ncsc3c2)n1` (stereo not shown) [Compound 241] belongs 220.5 to 222 °C; to `Cc1nc(-c2nc(C(F)(F)F)cs2)c(-c2ccc3ncsc3c2)[nH]1` [Compound 244], 190.5 to 192 °C. Still for that read-out and setting: to `O=C(C(=O)c1nc(C(F)(F)F)cs1)c1ccc2ncsc2c1` [Compound 251] belongs 163.5 to 164.5 °C.

By IC50 is commonly meant the concentration at which inhibition is half-maximal. One may read the melting point as the temperature, or range, at which the solid turns liquid.
